Measured values taken from patent publication US20230109833A1, “METABOLICALLY STABLE N-ACYLAMINOOXADIAZOLES USEFUL AS ANTIBACTERIAL AGENTS” (MICROBIOTIX, INC., priority 2017, published 2023).
≈ marks a conversion by molar mass, not a printed value. Entries after “also recorded” stand apart in the source; their conditions may differ. Where two headings read alike, the source gives them in different places. Each block holds one compound with its values, some of them ahead of it.

Tests used:
[1] = test system: N. gonorrhoeae; test: MIC (Table 2B); type: cell-based; conditions: Neisseria gonorrhoeae, read-out: N. gonorrhoeae MIC
[2] = test system: S. aureus; test: MIC (Table 2B); type: cell-based; conditions: Staphylococcus aureus, strain not given
[3] = test system: 36 mammalian receptors; type: binding; conditions: 10 μM; every receptor of the panel
[4] = Single dose PK (IV and PO); type: in vivo; conditions: mice, 10 mg/kg IV or IP, within 6 h, serum; 10 mg/kg

Structure (SMILES): Cc1cncc(Oc2ccc(C(=O)Nc3nnc(C4CC5CCC4C5)o3)cc2)n1 (stereo not shown) [compound 6282]
MIC ([1]; Table 2B, strain not given): 1.37 µg/mL (≈ 3.5 µM)
MIC [2]: 6.9 µg/mL (≈ 17.6 µM)

Structure (SMILES): O=C(Nc1nnc(-c2ccc(F)cc2)o1)c1ccc(N2CCC2)cc1 [compound 5910]
MIC ([1]; Table 2B, strain not given): 4.23 µg/mL (≈ 12.5 µM)
MIC [2]: 18.9 µg/mL (≈ 55.9 µM)

Structure (SMILES): Cc1ccc(C(=O)Nc2nnc(-c3ccc(N4CCC4)cc3)o2)cc1C [3999A]
MIC ([1]; Table 2B, strain not given): 0.087 µg/mL (≈ 0.25 µM)
MIC [2]: 0.68 µg/mL (≈ 1.95 µM)

Structure (SMILES): O=C(Nc1nnc(-c2cc(F)ccc2O)o1)c1ccc(Oc2cccc(O)c2)cc1 [compound 6977]
MIC ([1]; Table 2B, strain not given): 0.21 µg/mL (≈ 0.516 µM)
MIC [2]: 0.6 µg/mL (≈ 1.47 µM)

Structure (SMILES): CN(C(=O)c1ccc(Cl)cc1)c1nnc(-c2ccc(F)cc2)o1 [compound 4076]
MIC ([1]; Table 2B, strain not given): 2.07 µg/mL (≈ 6.24 µM)
MIC [2]: 8.27 µg/mL (≈ 24.9 µM)

Structure (SMILES): O=C(Nc1nnc(-c2ccc(F)cc2)o1)c1ccc(Oc2ccccc2)nc1 [compound 4237, 2-(6-phenoxynicotinamido)-5-(4-fluorophenyl)-1,3,4-oxadiazole]
inhibition of the 36 mammalian receptors [3]: < 50%

Structure (SMILES): COc1c(F)cccc1-c1nnc(NC(=O)c2ccc(Oc3cncc(C)n3)cc2)o1 [compound 6983]
MIC ([1]; Table 2B, strain not given): 9.7 µg/mL (≈ 23 µM)
MIC [2]: 21.1 µg/mL (≈ 50.1 µM)

Structure (SMILES): O=C(Nc1nnc(-c2ccc(F)cc2)o1)c1ccc2c(c1)ncn2-c1ccccc1 [compound 4311]
MIC ([1]; Table 2B, strain not given): 2.49 µg/mL (≈ 6.23 µM)

Structure (SMILES): O=C(Nc1nnc(C2COc3ccccc3O2)o1)c1ccc(Oc2ccccc2)nc1 (stereo not shown) [compound 4770]
MIC ([1]; Table 2B, strain not given): 3.33 µg/mL (≈ 8 µM)
MIC [2]: 7.36 µg/mL (≈ 17.7 µM)

Structure (SMILES): O=C(Nc1nnc(C2CCCC2)o1)c1ccc(Oc2ccccc2)nc1 [compound 4470]
MIC ([1]; Table 2B, strain not given): 0.35 µg/mL (≈ 0.999 µM)
MIC [2]: 4.37 µg/mL (≈ 12.5 µM)

Structure (SMILES): O=C(Nc1nnc(-c2ccc(F)cc2)o1)c1ccc(Oc2cccc(O)c2)cc1 [compound 4304]
MIC ([1]; Table 2B, strain not given): 0.39 µg/mL (≈ 0.997 µM)
MIC [2]: 3.07 µg/mL (≈ 7.84 µM)

MIC [2]: 2.64 µg/mL (≈ 6.23 µM)
Structure (SMILES): O=C(Nc1nnc(-c2ccc(F)cc2)o1)c1ccc(S(=O)(=O)c2ccccc2)cc1 [compound 4257]

Structure (SMILES): O=C(Nc1nnc(C2CC3CCC2C3)o1)c1ccc(OC2CCN(CC(F)(F)F)CC2)cc1 (stereo not shown) [compound 6211]
MIC ([1]; Table 2B, strain not given): 1.29 µg/mL (≈ 2.78 µM)
MIC [2]: 5.8 µg/mL (≈ 12.5 µM)

Structure (SMILES): O=C(Nc1nnc(C2CCCCC2)o1)c1ccc(OC2CCCCC2)nc1 [compound 4925]
MIC ([1]; Table 2B, strain not given): 0.14 µg/mL (≈ 0.378 µM)

Structure (SMILES): Cc1cccc(Oc2ccc(C(=O)Nc3nnc(-c4ccc(F)cc4)o3)cc2)c1 [compound 4306]
MIC ([1]; Table 2B, strain not given): 0.048 µg/mL (≈ 0.123 µM)
MIC [2]: 0.03 µg/mL (≈ 0.077 µM)

Structure (SMILES): O=C(Nc1nnc(-c2ccc(F)cc2)o1)c1ccc(Cl)s1 [compound 3653]
MIC ([1]; Table 2B, strain not given): 0.32 µg/mL (≈ 0.988 µM)

Structure (SMILES): Cc1ccc(Oc2ccc(C(=O)Nc3nnc(-c4ccc(F)cc4)o3)cc2)cc1 [compound 4305]
MIC ([1]; Table 2B, strain not given): 0.048 µg/mL (≈ 0.123 µM)
MIC [2]: 0.03 µg/mL (≈ 0.077 µM)

Structure (SMILES): COc1ccc(Oc2ccc(C(=O)Nc3nnc(-c4ccc(F)cc4)o3)cc2)cc1 [compound 4310]
MIC ([1]; Table 2B, strain not given): 0.05 µg/mL (≈ 0.123 µM)
MIC [2]: 0.631 µg/mL (≈ 1.56 µM)

Structure (SMILES): O=C(Nc1nnc(C2(O)CCCCC2)o1)c1ccc(Oc2ccccc2)nc1 [compound 5793]
MIC ([1]; Table 2B, strain not given): 38 µg/mL (≈ 99.9 µM)

Structure (SMILES): CC(Oc1ccc(C(=O)Nc2nnc(-c3ccc(F)cc3)o2)cc1)c1ccccc1 (stereo not shown) [compound 4357]
MIC ([1]; Table 2B, strain not given): 0.2 µg/mL (≈ 0.496 µM)

Structure (SMILES): O=C(Nc1nnc(Cc2ccc(F)cc2)o1)c1ccc(Oc2ccccc2)nc1 [compound 4802]
MIC ([1]; Table 2B, strain not given): 1.56 µg/mL (≈ 4 µM)

Structure (SMILES): CCC(c1ccccc1)c1nnc(NC(=O)c2ccc(Oc3ccccc3)nc2)o1 (stereo not shown) [compound 4804]
MIC ([1]; Table 2B, strain not given): 0.63 µg/mL (≈ 1.57 µM)

Structure (SMILES): O=C(Nc1nnc(-c2cccc(O)c2)o1)c1ccc(Oc2cccc(O)c2)cc1 [compound 6236]
MIC ([1]; Table 2B, strain not given): 4.86 µg/mL (≈ 12.5 µM)
MIC [2]: 19.4 µg/mL (≈ 49.8 µM)

Structure (SMILES): Cc1cc(C)cc(Oc2ccc(C(=O)Nc3nnc(-c4ccc(F)cc4)o3)cc2)c1 [compound 4308]
MIC ([1]; Table 2B, strain not given): 0.079 µg/mL (≈ 0.196 µM)
MIC [2]: 0.314 µg/mL (≈ 0.778 µM)

Structure (SMILES): O=C(Nc1nnc(-c2ccccc2O)o1)c1ccc(Oc2cccc(O)c2)cc1 [compound 6205]
MIC ([1]; Table 2B, strain not given): 0.3 µg/mL (≈ 0.77 µM)
MIC [2]: 1.71 µg/mL (≈ 4.39 µM)

Structure (SMILES): O=C(Nc1nnc(-c2cccc(F)c2O)o1)c1ccc(Oc2cccc(O)c2)cc1 [compound 6976]
MIC ([1]; Table 2B, strain not given): 1.91 µg/mL (≈ 4.69 µM)
MIC [2]: 2.5 µg/mL (≈ 6.14 µM)

Structure (SMILES): COc1cccc(Oc2ccc(C(=O)Nc3nnc(-c4ccc(F)cc4)o3)cc2)c1 [compound 4309]
MIC ([1]; Table 2B, strain not given): 0.1 µg/mL (≈ 0.247 µM)
MIC [2]: 0.63 µg/mL (≈ 1.55 µM)

Structure (SMILES): Cc1cccc(-c2nnc(NC(=O)c3ccc(Oc4ccccc4)nc3)o2)c1 [compound 4499]
MIC ([1]; Table 2B, strain not given): 0.18 µg/mL (≈ 0.483 µM)
MIC [2]: 0.92 µg/mL (≈ 2.47 µM)

Structure (SMILES): N#Cc1nnc(NC(=O)c2ccc(Oc3ccccc3)nc2)o1 [compound 5834]
MIC ([1]; Table 2B, strain not given): 20.3 µg/mL (≈ 66.1 µM)

Structure (SMILES): Nc1ccc(C(=O)Nc2nnc(-c3ccc(F)cc3)o2)cc1 [compound 5804]
MIC [1]: 18.8 µg/mL (≈ 63 µM)

Structure (SMILES): O=C(Nc1nnc(-c2ccc(F)cc2)o1)c1ccc(Cl)cc1 [KKL-35]
detectable material after dosing (preliminary PK) [4]: no detectable material; also recorded: undetectable

Structure (SMILES): O=C(Nc1nnc(-c2ccccc2O)o1)c1ccc(Oc2ccccc2)nc1 [5939A]
MIC ([1]; Table 2B, strain not given): 0.82 µg/mL (≈ 2.19 µM)
MIC [2]: 1.4 µg/mL (≈ 3.74 µM)

Structure (SMILES): O=C(Nc1nnc(C2CC3CCC2C3)o1)c1ccc(Oc2ccccc2)nc1 (stereo not shown) [compound 5246]
MIC ([1]; Table 2B, strain not given): 0.16 µg/mL (≈ 0.425 µM)
MIC [2]: 4.71 µg/mL (≈ 12.5 µM)

Structure (SMILES): O=C(Nc1nnc(C2CCCCC2)o1)c1ccc(Oc2ccccc2)nc1 [compound 4780]
MIC ([1]; Table 2B, strain not given): 0.36 µg/mL (≈ 0.988 µM)
MIC [2]: 3.61 µg/mL (≈ 9.91 µM)

Structure (SMILES): Cc1ccccc1Oc1ccc(C(=O)Nc2nnc(-c3ccc(F)cc3)o2)cc1 [compound 4307]
MIC ([1]; Table 2B, strain not given): 0.09 µg/mL (≈ 0.231 µM)
MIC [2]: 0.61 µg/mL (≈ 1.57 µM)

MIC [2]: 0.28 µg/mL (≈ 0.762 µM)
Structure (SMILES): O=C(Nc1nnc(-c2ccc(F)cc2)o1)c1ccc(OC2CCCC2)cc1 [compound 4293]

Structure (SMILES): O=C(Nc1nnc(C2CCCCC2)o1)c1ccc(Oc2cccc(O)c2)cc1 [compound 4801]
MIC ([1]; Table 2B, strain not given): 0.19 µg/mL (≈ 0.501 µM)
MIC [2]: 2.98 µg/mL (≈ 7.85 µM)
